Source: ChEMBL document CHEMBL3992518, “Peptide Macrocycle Inhibitor of Coagulation Factor XII with Subnanomolar Affinity and High Target Selectivity” (J Med Chem, 2017)
Calls of active or inactive are those of the source. The calls are words filed in the database; no cut-off is given here. *1 amine or outer side, *2 acyl side, *3 side chain or, on linkers, in order; H or OH if unused. Where a SMILES comes first, the peptide text is derived from it. Bridges are numbered along the chain shown (N, C = ends). TATA = O=C(CC[*:1])N1CN(C(=O)CC[*:2])CN(C(=O)CC[*:3])C1

How the values were obtained:
[1] = molecular target: T1, Coagulation factor XII (Homo sapiens, UniProt P00748); assay: Inhibition of human beta factor 12a using fluorogenic substrate Boc-Gln-Gly-Arg-AMC preincubated for 10 mins followed by addition of substrate measured every min for 30 mins
T1 sequence (P00748 whole entry): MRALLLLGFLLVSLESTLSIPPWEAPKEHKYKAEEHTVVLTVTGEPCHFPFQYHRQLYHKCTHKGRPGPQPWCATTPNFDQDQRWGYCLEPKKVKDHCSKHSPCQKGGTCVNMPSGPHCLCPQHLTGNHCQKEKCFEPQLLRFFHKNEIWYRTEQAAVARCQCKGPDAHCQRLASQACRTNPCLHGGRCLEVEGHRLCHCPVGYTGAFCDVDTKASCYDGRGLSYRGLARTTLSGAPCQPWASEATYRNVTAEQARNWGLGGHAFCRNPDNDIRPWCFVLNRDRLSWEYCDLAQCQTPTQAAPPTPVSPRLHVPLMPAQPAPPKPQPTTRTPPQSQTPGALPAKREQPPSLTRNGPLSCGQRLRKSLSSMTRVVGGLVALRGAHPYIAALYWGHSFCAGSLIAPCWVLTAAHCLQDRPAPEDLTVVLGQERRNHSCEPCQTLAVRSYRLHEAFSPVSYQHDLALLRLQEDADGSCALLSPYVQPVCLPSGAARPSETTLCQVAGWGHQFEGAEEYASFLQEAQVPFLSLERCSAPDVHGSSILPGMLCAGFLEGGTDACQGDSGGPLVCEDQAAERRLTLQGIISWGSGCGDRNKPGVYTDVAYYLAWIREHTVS

[2] = Half life in human citrated plasma at 10 uM by mass spectrophotometric analysis; assay type: ADME, cell-free
[3] = molecular target: Coagulation factor XI (Homo sapiens) (UniProt P03951); assay: Inhibition of human factor 11a at 40 uM using fluorogenic substrate Boc-Phe-Ser-Arg-AMC
[4] = molecular target: Plasminogen (Homo sapiens) (UniProt P00747); assay: Inhibition of human plasmin at 40 uM using fluorogenic substrate H-D-Val-Leu-Lys-AMC
[5] = molecular target: Urokinase-type plasminogen activator (Homo sapiens) (UniProt P00749); assay: Inhibition of human uPa at 40 uM using fluorogenic substrate Z-Gly-Gly-Arg-AMC
[6] = molecular target: Tissue-type plasminogen activator (Homo sapiens) (UniProt P00750); assay: Inhibition of human tPa at 40 uM using fluorogenic substrate Z-Gly-Gly-Arg-AMC
[7] = molecular target: Prothrombin (Homo sapiens) (UniProt P00734); assay: Inhibition of human thrombin at 40 uM using fluorogenic substrate Z-Gly-Gly-Arg-AMC
[8] = molecular target: Coagulation factor X (Homo sapiens) (UniProt P00742); assay: Inhibition of human factor 10a at 40 uM using fluorogenic substrate D-Phe-Pro-Arg-ANSNH-C4H9
[9] = molecular target: T2, Coagulation factor VII (Homo sapiens) (UniProt P08709); assay: Inhibition of human factor 7a at 40 uM using fluorogenic substrate D-Phe-Pro-Arg-ANSNH-C4H9
T2 sequence (whole entry): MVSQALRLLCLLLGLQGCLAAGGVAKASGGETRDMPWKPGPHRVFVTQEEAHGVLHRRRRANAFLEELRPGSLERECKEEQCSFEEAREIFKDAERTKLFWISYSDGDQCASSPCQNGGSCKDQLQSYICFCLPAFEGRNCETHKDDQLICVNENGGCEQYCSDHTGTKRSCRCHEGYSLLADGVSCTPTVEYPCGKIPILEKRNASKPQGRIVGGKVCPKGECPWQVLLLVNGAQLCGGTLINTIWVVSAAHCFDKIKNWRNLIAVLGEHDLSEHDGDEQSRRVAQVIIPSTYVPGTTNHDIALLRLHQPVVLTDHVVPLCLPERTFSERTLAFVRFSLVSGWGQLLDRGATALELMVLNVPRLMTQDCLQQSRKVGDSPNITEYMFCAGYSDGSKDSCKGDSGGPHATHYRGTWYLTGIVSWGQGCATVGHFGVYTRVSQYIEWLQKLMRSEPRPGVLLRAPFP

[10] = organism: Homo sapiens; assay: Inhibition of human trypsin at 40 uM using fluorogenic substrate Z-Gly-Gly-Arg-AMC
[11] = molecular target: T3, Plasma kallikrein (Homo sapiens, UniProt P03952); assay: Inhibition of human plasma kallikrein at 40 uM using fluorogenic substrate Z-Phe-Arg-AMC
[12] = organism: Homo sapiens; assay: Selectivity for human beta-factor 12a over human trypsin
[13] = organism: Homo sapiens; assay: Selectivity for human beta-factor 12a over human factor 11a
[14] = organism: Homo sapiens; assay: Selectivity for human beta-factor 12a over human plasmin
[15] = organism: Homo sapiens; assay: Selectivity for human beta-factor 12a over human uPa
[16] = organism: Homo sapiens; assay: Selectivity for human beta-factor 12a over human tPa
[17] = organism: Homo sapiens; assay: Selectivity for human beta-factor 12a over human thrombin
[18] = organism: Homo sapiens; assay: Selectivity for human beta factor 12a over human plasma kallikrein
[19] = organism: Homo sapiens; assay: Selectivity for human beta-factor 12a over human factor 10a
[20] = organism: Homo sapiens; assay: Selectivity for human beta-factor 12a over human factor 7a
[21] = tested on: Plasma; assay: Anticoagulant activity in human plasma assessed as concentration required to double activated partial thromboplastin time by coagulation analyser; assay type: functional
[22] = Inhibition of human trypsin using fluorogenic substrate Z-Gly-Gly-Arg-AMC
[23] = molecular target: T3, Plasma kallikrein; assay: Inhibition of human plasma kallikrein using fluorogenic substrate Z-Phe-Arg-AMC
[24] = tested on: Plasma; assay: Anticoagulant activity in human plasma assessed as change in prothrombin time up to 40 uM by coagulation analyser; assay type: functional, cell-free

T3 sequence (P03952 20-390 limits assumed): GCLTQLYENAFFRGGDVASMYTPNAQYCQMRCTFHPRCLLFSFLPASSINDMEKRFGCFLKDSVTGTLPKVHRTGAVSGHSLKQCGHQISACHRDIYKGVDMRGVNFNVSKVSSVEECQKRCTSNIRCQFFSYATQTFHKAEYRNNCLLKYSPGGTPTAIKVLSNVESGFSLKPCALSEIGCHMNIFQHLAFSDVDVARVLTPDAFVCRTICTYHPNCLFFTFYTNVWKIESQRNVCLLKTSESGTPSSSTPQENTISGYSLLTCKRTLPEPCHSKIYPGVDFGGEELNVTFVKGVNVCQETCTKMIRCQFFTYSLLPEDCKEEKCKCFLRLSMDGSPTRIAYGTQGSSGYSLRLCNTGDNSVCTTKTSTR
T3 sequence (P03952 391-638 limits assumed): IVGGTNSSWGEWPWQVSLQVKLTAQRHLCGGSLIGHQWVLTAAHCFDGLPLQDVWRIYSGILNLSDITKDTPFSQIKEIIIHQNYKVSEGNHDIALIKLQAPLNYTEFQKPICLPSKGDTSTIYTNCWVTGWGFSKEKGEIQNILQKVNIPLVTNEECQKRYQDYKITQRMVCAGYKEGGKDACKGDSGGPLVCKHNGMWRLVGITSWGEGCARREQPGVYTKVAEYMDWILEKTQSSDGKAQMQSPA
Sequence of Plasminogen (Homo sapiens) (P00747 97-580 limits assumed): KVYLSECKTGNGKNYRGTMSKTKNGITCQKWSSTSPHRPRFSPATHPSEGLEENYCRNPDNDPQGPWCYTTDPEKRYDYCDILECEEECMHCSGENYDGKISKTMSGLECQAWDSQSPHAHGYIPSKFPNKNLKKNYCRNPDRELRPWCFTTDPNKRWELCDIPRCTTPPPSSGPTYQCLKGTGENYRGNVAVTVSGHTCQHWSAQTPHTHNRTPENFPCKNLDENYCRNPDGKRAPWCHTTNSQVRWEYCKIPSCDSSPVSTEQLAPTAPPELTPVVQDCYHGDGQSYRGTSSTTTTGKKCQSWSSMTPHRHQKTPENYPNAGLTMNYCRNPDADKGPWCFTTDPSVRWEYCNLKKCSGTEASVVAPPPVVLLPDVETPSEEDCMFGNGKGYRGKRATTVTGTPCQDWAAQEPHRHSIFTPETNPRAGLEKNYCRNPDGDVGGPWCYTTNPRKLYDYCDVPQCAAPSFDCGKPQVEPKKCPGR
Sequence of Plasminogen (Homo sapiens) (P00747 581-810 limits assumed): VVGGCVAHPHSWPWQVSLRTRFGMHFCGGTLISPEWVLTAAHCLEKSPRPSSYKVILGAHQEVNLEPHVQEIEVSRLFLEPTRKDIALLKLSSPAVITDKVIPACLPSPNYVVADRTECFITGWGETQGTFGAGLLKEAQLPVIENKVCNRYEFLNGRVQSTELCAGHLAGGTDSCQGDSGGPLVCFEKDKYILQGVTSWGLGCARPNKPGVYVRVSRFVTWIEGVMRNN
Sequence of Coagulation factor XI (Homo sapiens) (P03951 19-387 limits assumed): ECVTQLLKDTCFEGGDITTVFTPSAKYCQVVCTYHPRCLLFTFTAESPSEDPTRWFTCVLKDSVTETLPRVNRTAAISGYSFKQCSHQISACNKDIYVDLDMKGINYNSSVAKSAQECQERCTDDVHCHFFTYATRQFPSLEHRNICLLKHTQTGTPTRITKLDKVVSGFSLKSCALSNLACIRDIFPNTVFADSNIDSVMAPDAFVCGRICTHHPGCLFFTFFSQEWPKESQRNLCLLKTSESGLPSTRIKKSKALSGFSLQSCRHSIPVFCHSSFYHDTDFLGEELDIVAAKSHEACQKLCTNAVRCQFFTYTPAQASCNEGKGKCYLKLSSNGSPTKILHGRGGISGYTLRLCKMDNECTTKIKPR
Sequence of Coagulation factor XI (Homo sapiens) (P03951 388-625 limits assumed): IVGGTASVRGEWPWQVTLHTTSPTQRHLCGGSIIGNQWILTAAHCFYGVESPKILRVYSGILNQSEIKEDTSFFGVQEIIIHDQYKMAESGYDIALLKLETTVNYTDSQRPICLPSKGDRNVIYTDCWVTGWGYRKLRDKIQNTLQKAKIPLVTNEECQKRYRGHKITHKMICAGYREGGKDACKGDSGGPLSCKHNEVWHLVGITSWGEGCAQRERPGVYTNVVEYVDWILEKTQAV
Sequence of Coagulation factor X (Homo sapiens) (P00742 41-179 limits assumed): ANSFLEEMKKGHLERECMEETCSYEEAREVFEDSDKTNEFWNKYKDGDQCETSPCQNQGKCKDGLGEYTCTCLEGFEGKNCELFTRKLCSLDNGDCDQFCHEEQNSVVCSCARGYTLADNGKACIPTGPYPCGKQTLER
Sequence of Coagulation factor X (Homo sapiens) (P00742 235-488 limits assumed): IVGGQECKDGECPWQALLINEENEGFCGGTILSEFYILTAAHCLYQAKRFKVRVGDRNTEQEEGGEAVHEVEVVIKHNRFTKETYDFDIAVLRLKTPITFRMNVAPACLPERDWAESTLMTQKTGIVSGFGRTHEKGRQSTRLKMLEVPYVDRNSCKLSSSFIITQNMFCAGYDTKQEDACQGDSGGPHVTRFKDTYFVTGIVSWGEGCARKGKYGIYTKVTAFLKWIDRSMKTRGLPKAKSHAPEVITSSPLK
Sequence of Tissue-type plasminogen activator (Homo sapiens) (P00750 36-562 limits assumed): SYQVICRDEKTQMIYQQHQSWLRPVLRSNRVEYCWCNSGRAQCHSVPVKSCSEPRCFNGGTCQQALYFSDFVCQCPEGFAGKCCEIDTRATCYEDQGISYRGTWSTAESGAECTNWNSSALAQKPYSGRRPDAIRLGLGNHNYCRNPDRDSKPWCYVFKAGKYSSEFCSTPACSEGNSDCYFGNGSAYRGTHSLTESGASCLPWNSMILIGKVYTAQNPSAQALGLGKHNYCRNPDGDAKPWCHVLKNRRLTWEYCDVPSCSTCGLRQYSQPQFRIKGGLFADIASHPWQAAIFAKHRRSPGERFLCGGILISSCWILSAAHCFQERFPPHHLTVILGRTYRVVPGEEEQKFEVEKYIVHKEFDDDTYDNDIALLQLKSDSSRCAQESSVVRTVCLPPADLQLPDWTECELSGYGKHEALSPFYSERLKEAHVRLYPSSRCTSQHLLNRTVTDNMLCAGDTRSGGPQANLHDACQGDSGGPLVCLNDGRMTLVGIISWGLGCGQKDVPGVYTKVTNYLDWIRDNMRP

SMILES	Ki [1] [nM]	half-life at 10 µM [2] [h]	inhibition [10]	inhibition [11]	2aPTT [21] [µM]	Activity [21]	Activity [24]	other results
CC(C)C[C@@H]1NC(=O)[C@H](CCC(N)=O)NC(=O)[C@H](CCCNC(=N)N)NC(=O)[C@@H]2CSCCC(=O)N3CN(CN(C3)C(=O)CCSC[C@@H](C(=O)N[C@@H](CCCNC(=N)N)C(=O)O)NC(=O)[C@H](CCCNC(=N)N)NC1=O)C(=O)CCSC[C@H](NC(=O)[C@H](N)CCNC(=N)N)C(=O)N[C@@H](Cc1ccccc1)C(=O)N[C@@H](CCCNC(=N)N)C(=O)N[C@@H](CC(C)C)C(=O)N1CCC[C@H]1C(=O)N2	14	22	–	–	–	–	–	–
CC(C)C[C@@H]1NC(=O)[C@H](CCC(N)=O)NC(=O)[C@H](CCCNC(=N)N)NC(=O)[C@@H]2CSCCC(=O)N3CN(CN(C3)C(=O)CCSC[C@H](NC(=O)[C@@H](N)CCNC(=N)N)C(=O)N[C@@H](Cc3ccc(F)cc3)C(=O)N[C@@H](CCCNC(=N)N)C(=O)N[C@@H](CC(C)C)C(=O)N3CCC[C@H]3C(=O)N2)C(=O)CCSC[C@@H](C(=O)N[C@@H](CCCNC(=N)N)C(=O)O)NC(=O)[C@H](CCCNC(=N)N)NC1=O	1.63	16	> 50%	> 50%	2	Dose-dependent effect	inactive	inhibition [3]: < 20%; inhibition [4]: < 20%; inhibition [5]: < 20%; inhibition [6]: < 20%; inhibition [7]: < 20%; inhibition [8]: < 20%; inhibition [9]: < 20%; Selectivity ratio [12]: 800; Selectivity ratio [13]: 27000; Selectivity ratio [14]: 27000; Selectivity ratio [15]: 27000; Selectivity ratio [16]: 27000; Selectivity ratio [17]: 27000; Selectivity ratio [18]: 27000; Selectivity ratio [19]: 27000; Selectivity ratio [20]: 27000; Ki [22]: 1300 nM; Ki [23]: 45100 nM
CC(C)C[C@@H]1NC(=O)[C@H](CCC(N)=O)NC(=O)[C@H](CCCNC(=N)N)NC(=O)[C@@H]2CSCCC(=O)N3CN(CN(C3)C(=O)CCSC[C@@H](C(=O)N[C@@H](CCCNC(=N)N)C(=O)O)NC(=O)[C@H](CCCNC(=N)N)NC1=O)C(=O)CCSC[C@H](NC(=O)[C@H](N)CCCCNC(=N)N)C(=O)N[C@@H](Cc1ccccc1)C(=O)N[C@@H](CCCNC(=N)N)C(=O)N[C@@H](CC(C)C)C(=O)N1CCC[C@H]1C(=O)N2	8.8	5	–	–	–	–	–	–
CC(C)C[C@@H]1NC(=O)[C@H](CCC(N)=O)NC(=O)[C@H](CCCNC(=N)N)NC(=O)[C@@H]2CSCCC(=O)N3CN(CN(C3)C(=O)CCSC[C@@H](C(=O)N[C@@H](CCCNC(=N)N)C(=O)O)NC(=O)[C@H](CCCNC(=N)N)NC1=O)C(=O)CCSC[C@H](NC(=O)[C@H](N)CCCCCN)C(=O)N[C@@H](Cc1ccccc1)C(=O)N[C@@H](CCCNC(=N)N)C(=O)N[C@@H](CC(C)C)C(=O)N1CCC[C@H]1C(=O)N2	6.5	2	–	–	–	–	–	–
CC(C)C[C@@H]1NC(=O)[C@H](CCC(N)=O)NC(=O)[C@H](CCCNC(=N)N)NC(=O)[C@@H]2CSCCC(=O)N3CN(CN(C3)C(=O)CCSC[C@H](NC(=O)[C@@H](N)CCCNC(=N)N)C(=O)N[C@@H](Cc3ccc(F)cc3)C(=O)N[C@@H](CCCNC(=N)N)C(=O)N[C@@H](CC(C)C)C(=O)N3CCC[C@H]3C(=O)N2)C(=O)CCSC[C@@H](C(=O)N[C@@H](CCCNC(=N)N)C(=O)O)NC(=O)[C@H](CCCNC(=N)N)NC1=O	0.84	–	Active	Active	1.6	Dose-dependent effect	inactive	–
CC(C)C[C@@H]1NC(=O)[C@H](CCC(N)=O)NC(=O)[C@H](CCCNC(=N)N)NC(=O)[C@@H]2CSCCC(=O)N3CN(CN(C3)C(=O)CCSC[C@@H](C(=O)N[C@@H](CCCNC(=N)N)C(=O)O)NC(=O)[C@H](CCCNC(=N)N)NC1=O)C(=O)CCSC[C@H](NC(=O)[C@H](N)Cc1ccc(NC(=N)N)cc1)C(=O)N[C@@H](Cc1ccccc1)C(=O)N[C@@H](CCCNC(=N)N)C(=O)N[C@@H](CC(C)C)C(=O)N1CCC[C@H]1C(=O)N2	15	13	–	–	–	–	–	–
CC(C)C[C@@H]1NC(=O)[C@H](CCC(N)=O)NC(=O)[C@H](CCCNC(=N)N)NC(=O)[C@@H]2CSCCC(=O)N3CN(CN(C3)C(=O)CCSC[C@H](NC(=O)[C@@H](N)CCCNC(=N)N)C(=O)N[C@@H](Cc3ccccc3)C(=O)N[C@@H](CCCNC(=N)N)C(=O)N[C@@H](CC(C)C)C(=O)N3CCC[C@H]3C(=O)N2)C(=O)CCSC[C@@H](C(=O)N[C@@H](CCCNC(=N)N)C(=O)O)NC(=O)[C@H](CCCNC(=N)N)NC1=O	–	4	Active	Active	2.9	Dose-dependent effect	inactive	–
CC(C)C[C@@H]1NC(=O)[C@H](CCC(N)=O)NC(=O)[C@H](CCCNC(=N)N)NC(=O)[C@@H]2CSCCC(=O)N3CN(CN(C3)C(=O)CCSC[C@H](NC(=O)[C@@H](N)C(C)C)C(=O)N[C@@H](Cc3ccccc3)C(=O)N[C@@H](CCCNC(=N)N)C(=O)N[C@@H](CC(C)C)C(=O)N3CCC[C@H]3C(=O)N2)C(=O)CCSC[C@@H](C(=O)N[C@@H](CCCNC(=N)N)C(=O)O)NC(=O)[C@H](CCCNC(=N)N)NC1=O (H-VCFRLPCRQLRCR-OH; linker 2-7-12 via TATA)	99	–	–	–	–	–	–	–
CC(C)C[C@@H]1NC(=O)[C@H](CCC(N)=O)NC(=O)[C@H](CCCNC(=N)N)NC(=O)[C@@H]2CSCCC(=O)N3CN(CN(C3)C(=O)CCSC[C@H](NC(=O)[C@@H](N)CCCNC(=N)N)C(=O)N[C@@H](Cc3ccccc3)C(=O)N[C@@H](CCCNC(=N)N)C(=O)N[C@@H](CC(C)C)C(=O)N[C@@H](CC(N)=O)C(=O)N2)C(=O)CCSC[C@@H](C(=O)N[C@@H](CCCNC(=N)N)C(=O)N[C@@H](Cc2c[nH]c3ccccc23)C(=O)O)NC(=O)[C@H](CCCNC(=N)N)NC1=O (H-RCFRLNCRQLRCRW-OH; linker 2-7-12 via TATA)	104	–	–	–	–	–	–	–
